Some test systems named below: A498; A549; ACHN; COLO 205; HOP-62; LOX IMVI; MCF7; MDA-MB-231; MOLT-4; Malme-3M; NCI-H226; NCI/ADR-RES; SF-539; SK-OV-3; SNB-19; SNB-75; SR; U-251.
What all share (test): inhibition of tumour cell growth, NCI panel, 48 h

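Results reflect a 48-hour exposure of cells in 96-well plates to compound at five concentrations. GI50 = concentration required for 50% inhibition of growth.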 Calls of active or inactive are those of the source. Cut-off read from the data, not from the text of the source: active = GI50 up to about 1.1 µM and inactive = higher.

Take `O=C1CCCSC(=O)N1Cc1ccccc1`: the GI50 with A498, with A549, with ACHN, in the experiment with COLO 205, in the experiment with HOP-62 and with LOX IMVI was > 100 µM (inactive) throughout. For the same compound, the GI50 in the experiment on MCF7, in the experiment on MDA-MB-231, in the experiment with MOLT-4, in the experiment on Malme-3M, in the experiment with NCI-H226 and with NCI/ADR-RES was > 100 µM (inactive) each time. In addition, the GI50 in the experiment on SF-539 was > 100 µM (inactive); in the experiment with SK-OV-3, > 100 µM (inactive); with SNB-19 it was > 100 µM (inactive); in the experiment with SNB-75 it was 0.0515 µM (active); in the experiment on SR it was > 100 µM (inactive).

In the case of `O=c1c2c3c(sc2nc2n1N=C(c1ccc([N+](=O)[O-])cc1)CS2)CCCC3`, the GI50 with A498, in the experiment on A549, with ACHN, with COLO 205, in the experiment with HOP-62 and in the experiment with LOX IMVI was > 100 µM (inactive) each time. Besides, the GI50 with MCF7, with MDA-MB-231, in the experiment on MOLT-4, in the experiment with Malme-3M, in the experiment on NCI-H226 and with NCI/ADR-RES was > 100 µM (inactive) in each case. For the same compound, the GI50 with SF-539, in the experiment with SK-OV-3, in the experiment on SNB-75, in the experiment with SR and with U-251 was > 100 µM (inactive) throughout.

With `N#Cc1ccsc1Nc1ccccc1[N+](=O)[O-]`, the GI50 is > 100 µM (inactive) in the experiment with A498; > 100 µM (inactive) in the experiment on A549; > 100 µM (inactive) in the experiment on ACHN; > 100 µM (inactive) with COLO 205; 38.1 µM (inactive) in the experiment with HOP-62; > 100 µM (inactive) in the experiment on MCF7. In addition, the GI50 with MDA-MB-231 is 31.3 µM (inactive); in the experiment on MOLT-4, > 100 µM (inactive); in the experiment with Malme-3M, > 100 µM (inactive); in the experiment on NCI-H226 it was > 100 µM (inactive); with NCI/ADR-RES, > 100 µM (inactive); with SF-539, > 100 µM (inactive). For the same compound, the GI50 with SK-OV-3 was > 100 µM (inactive); in the experiment on SNB-19, 52.2 µM (inactive); in the experiment on SNB-75, > 100 µM (inactive); in the experiment with SR, > 100 µM (inactive); in the experiment on U-251, 72.9 µM (inactive).

For the compound `C/C(=N\NC(=O)c1ccncc1)c1ccc2ccccc2c1O`, the GI50 with A498 is 11.2 µM (inactive); in the experiment on A549, 1.77 µM (inactive); in the experiment with ACHN, 0.993 µM (active); with COLO 205, 0.561 µM (active); in the experiment on HOP-62 it was 4.37 µM (inactive); in the experiment on LOX IMVI it was 1.04 µM (active). Also, the GI50 in the experiment on MCF7 was 1.35 µM (inactive); in the experiment with MDA-MB-231 it was 5.08 µM (inactive); with MOLT-4, 0.513 µM (active); in the experiment on Malme-3M, 1.19 µM (inactive); with NCI-H226, 1.77 µM (inactive); with NCI/ADR-RES, 1.87 µM (inactive). Moreover, the GI50 in the experiment with SF-539 is 1.46 µM (inactive); in the experiment with SK-OV-3, 4.47 µM (inactive); in the experiment on SNB-19, 17.5 µM (inactive); in the experiment with SNB-75, 3.66 µM (inactive); in the experiment with SR it was 0.303 µM (active); in the experiment with U-251, 2.69 µM (inactive).

Consider `O=c1cc(-c2ccccc2)nc2[nH]ccn12`, for which the GI50 in the experiment with A498, in the experiment with A549, in the experiment with ACHN, in the experiment with COLO 205, with HOP-62 and with LOX IMVI was > 10 µM (inactive) each time. The GI50 in the experiment on MCF7, in the experiment on MDA-MB-231, in the experiment with MOLT-4, in the experiment with Malme-3M, in the experiment on NCI-H226 and in the experiment on NCI/ADR-RES was > 10 µM (inactive) throughout. The GI50 was > 10 µM (inactive) in the experiment on SF-539; > 10 µM (inactive) in the experiment with SK-OV-3; > 10 µM (inactive) in the experiment on SNB-19; 6.25 µM (inactive) with SNB-75; > 10 µM (inactive) with SR; > 10 µM (inactive) in the experiment with U-251.

As for `O=C(CCN1CCN2c3ccccc3CCC2C1)c1ccc(F)cc1` (stereo not drawn), the GI50 in the experiment on A498 was > 100 µM (inactive); with A549, > 100 µM (inactive); in the experiment on ACHN, 19 µM (inactive); in the experiment on COLO 205, 22 µM (inactive); with HOP-62, 23.8 µM (inactive); in the experiment with LOX IMVI, 30.1 µM (inactive). For the same compound, the GI50 in the experiment with MCF7 was 19.8 µM (inactive); in the experiment with MDA-MB-231, 37.7 µM (inactive); with MOLT-4 it was 57.3 µM (inactive); in the experiment with Malme-3M, 25.1 µM (inactive); in the experiment with NCI-H226 it was 34.8 µM (inactive); in the experiment with NCI/ADR-RES, 36 µM (inactive). Moreover, the GI50 in the experiment on SF-539 is 20.8 µM (inactive); in the experiment on SK-OV-3 it was 68.2 µM (inactive); in the experiment on SNB-19, 23.2 µM (inactive); in the experiment with SNB-75, 27.2 µM (inactive); in the experiment on SR, 28.4 µM (inactive); with U-251, 27.8 µM (inactive).

`Cc1cc2c(cc1C(=O)CCC(=O)O)CC1(C2)Cc2cc(C)c(C(=O)CCC(=O)O)cc2C1`: the GI50 with A498, in the experiment on A549, in the experiment with ACHN, in the experiment with COLO 205, with HOP-62 and with LOX IMVI was > 100 µM (inactive) each time. Moreover, the GI50 in the experiment with MCF7, with MDA-MB-231, with MOLT-4, with Malme-3M, in the experiment with NCI-H226 and in the experiment on NCI/ADR-RES was > 100 µM (inactive) throughout. The GI50 with SF-539 is > 100 µM (inactive); in the experiment with SK-OV-3 it was > 100 µM (inactive); in the experiment with SNB-19, > 100 µM (inactive); in the experiment with SNB-75 it was 90.6 µM (inactive); in the experiment on SR it was > 100 µM (inactive); in the experiment with U-251, > 100 µM (inactive).

As for `Cc1nc2ccc(S(=O)(=O)NS(=O)(=O)c3ccc(-c4ccccc4)cc3)cc2c(=O)n1NS(=O)(=O)c1ccc(-c2ccccc2)cc1`, the GI50 was 0.753 µM (active) in the experiment on A498; > 100 µM (inactive) in the experiment with A549; > 100 µM (inactive) in the experiment with ACHN; > 100 µM (inactive) with COLO 205; > 100 µM (inactive) in the experiment with HOP-62; > 100 µM (inactive) with LOX IMVI. Also, the GI50 with MCF7, with MDA-MB-231, in the experiment on MOLT-4, in the experiment on Malme-3M, with NCI-H226 and in the experiment on NCI/ADR-RES was > 100 µM (inactive) each time. Further, the GI50 in the experiment with SF-539, in the experiment on SK-OV-3, in the experiment on SNB-19, with SNB-75, with SR and with U-251 was > 100 µM (inactive) in each case.

`C=CCSc1nnc2cc(CN3CCCC3)c(-c3ccc(Cl)cc3)nn12`: the GI50 was 15.9 µM (inactive) with A498; 28.1 µM (inactive) in the experiment on A549; 15.7 µM (inactive) in the experiment on ACHN; 17.6 µM (inactive) with COLO 205; 20.7 µM (inactive) with HOP-62; 20.4 µM (inactive) with LOX IMVI. For the same compound, the GI50 was 16.1 µM (inactive) with MCF7; 19.6 µM (inactive) in the experiment on MDA-MB-231; 26 µM (inactive) in the experiment on MOLT-4; 22.6 µM (inactive) in the experiment on Malme-3M; 11.2 µM (inactive) in the experiment on NCI-H226; 23.3 µM (inactive) in the experiment with NCI/ADR-RES. Moreover, the GI50 in the experiment on SF-539 was 18.6 µM (inactive); in the experiment on SK-OV-3 it was 20.2 µM (inactive); in the experiment on SNB-19, 24.6 µM (inactive); with SNB-75, 19.9 µM (inactive); in the experiment with SR, 32.6 µM (inactive); with U-251, 17.5 µM (inactive).

As to `COc1ccc(C(C2=C(O)COC2=O)c2cc3c(cc2O)OCO3)cc1OC` (stereo not drawn), the GI50 with A498, with A549, with ACHN, in the experiment on COLO 205, in the experiment on HOP-62 and with LOX IMVI was > 100 µM (inactive) throughout. Besides, the GI50 in the experiment on MCF7, in the experiment on MDA-MB-231, in the experiment on MOLT-4, in the experiment on Malme-3M, in the experiment with NCI-H226 and in the experiment with NCI/ADR-RES was > 100 µM (inactive) each time. Moreover, the GI50 in the experiment with SF-539, with SK-OV-3, in the experiment on SNB-19, in the experiment on SNB-75 and in the experiment with SR was > 100 µM (inactive) each time.

As to `Cc1ccc(C(=O)N/N=C2/C(=O)c3c4ccccc4cc4cccc2c34)cc1`, the GI50 in the experiment with A498 is > 100 µM (inactive); with A549, 32.4 µM (inactive); with ACHN it was 7.82 µM (inactive); in the experiment with COLO 205 it was 31.3 µM (inactive); in the experiment on HOP-62, 16.2 µM (inactive); in the experiment on LOX IMVI, 12.4 µM (inactive). The GI50 with MCF7 was 2.3 µM (inactive); in the experiment on MDA-MB-231, 37 µM (inactive); with Malme-3M, 18.8 µM (inactive); in the experiment on NCI-H226 it was > 69.3 µM (inactive); in the experiment with NCI/ADR-RES, 30.1 µM (inactive); in the experiment with SF-539 it was 15.5 µM (inactive). Besides, the GI50 in the experiment with SK-OV-3 was 23.7 µM (inactive); in the experiment on SNB-19, 27.6 µM (inactive); with SNB-75, 26.7 µM (inactive); in the experiment on SR it was 1.99 µM (inactive); with U-251, 21 µM (inactive).

(Values after ChEMBL document CHEMBL1201862, “PubChem BioAssay data set” (2004).)
